Assay results: ChEMBL document CHEMBL6103570, “An endoplasmic reticulum and lipid droplets dual-localized strategy to develop small molecular photosensitizers that induce ferroptosis during photodynamic therapy” (Eur J Med Chem, 2025)
The source made the active and inactive calls. The rule behind the calls is not given here.

How the values were obtained:
[1] = test system: 4T1; assay: Induction of ferroptosis in mouse 4T1 cells assessed as increase in MDA level at 15 nM preincubated in dark condition for 24 hrs followed by 20mW/cm2 white light irradiation for 10 mins and measured after 6 hrs by colorimetric assay; type: functional, cell-based; conditions: time 1810.0 min
[2] = (§1) Photo selectivity index, ratio of CC50 for darktoxicity in human Bcap37 cells assessed as cell viability preincubated for 24 hrs followed by incubation under dark condition for 24 hrs by MTT assay to IC50 for phototoxicity in human Bcap37 cells assessed as cell viability preincubated for 24 hrs followed by white light irradiation at 20 mW/cm2 for 10 mins and measured after 24 hrs by MTT assay; type: toxicity, cell-based; conditions: read-out: Ratio CC50/IC50
[3] = Phototoxicity in mouse 4T1 cells assessed as cell viability preincubated for 24 hrs followed by white light irradiation at 20 mW/cm2 for 10 mins and measured after 24 hrs by MTT assay; type: functional, cell-based; conditions: 4T1, light or radiation study
[4] = Darktoxicity in human Bcap37 cells assessed as cell viability preincubated for 24 hrs followed by incubation under dark condition for 24 hrs by MTT assay; type: toxicity, cell-based; conditions: time 48 hrs
[5] = as §1, with “MDA-MB-231” for “Bcap37”; type: toxicity, cell-based; conditions: read-out: Ratio CC50/IC50
[6] = as §1, with “MCF7” for “Bcap37”; type: toxicity, cell-based; conditions: read-out: Ratio CC50/IC50
[7] = Darktoxicity in human MCF7 cells assessed as cell viability preincubated for 24 hrs followed by incubation under dark condition for 24 hrs by MTT assay; type: toxicity, cell-based; conditions: time 48 hrs
[8] = Phototoxicity in human Bcap37 cells assessed as cell viability preincubated for 24 hrs followed by white light irradiation at 20 mW/cm2 for 10 mins and measured after 24 hrs by MTT assay; type: functional, cell-based; conditions: Bcap37, light or radiation study
[9] = test system: 4T1; assay: Induction of ferroptosis in mouse 4T1 cells assessed as cell viability at 30 nM preincubated for 24 hrs followed by white light irradiation at 20 mW/cm2 and measured after 24 hrs in presence of Fer-1 by MTT assay; type: functional, cell-based; conditions: time 48.0 hrs
[10] = test system: 4T1; assay: Upregulation of Acsl4 mRNA expression in mouse 4T1 cells at 10 nM under light irradiation by KEGG analysis; type: functional, cell-based
[11] = test system: MDA-MB-231; assay: Upregulation of Hmox1 mRNA expression in human MDA-MB-231 cells at 10 nM preincubated for 24 hrs followed by […] white light irradiation for 10 mins and measured after 12 hrs by qRT-PCR analysis; type: functional, cell-based; conditions: time 2170.0 min
[12] = test system: 4T1; assay: Induction of ferroptosis in mouse 4T1 cells assessed as increase in intracellular lipid peroxidation accumulation by measuring increase in green fluorescence at 30 nM incubated under dark condition for 24 hrs by C11 BODIPY 581/591 staining based analysis; type: functional, cell-based
[13] = test system: 4T1; assay: Upregulation of Hmox1 mRNA expression in mouse 4T1 cells at 10 nM under light irradiation by KEGG analysis; type: functional, cell-based
[14] = test system: 4T1; assay: Upregulation of Chac1 mRNA expression in mouse 4T1 cells at 10 nM preincubated for 24 hrs followed by […] white light irradiation for 10 mins and measured after 12 hrs by qRT-PCR analysis; type: functional, cell-based; conditions: time 2170.0 min
[15] = Darktoxicity in human MDA-MB-231 cells assessed as cell viability preincubated for 24 hrs followed by incubation under dark condition for 24 hrs by MTT assay; type: toxicity, cell-based; conditions: time 48 hrs
[16] = test system: 4T1; assay: Induction of ferroptosis in mouse 4T1 cells assessed as cell viability at 30 nM preincubated for 24 hrs followed by white light irradiation at 20 mW/cm2 and measured after 24 hrs in presence of Nec-1 by MTT assay; type: functional, cell-based; conditions: time 48.0 hrs
[17] = test system: 4T1; assay: (§2) Induction of intracellular ROS generation in mouse 4T1 cells assessed as increase in green fluorescence intensity at 5 to 60 nM incubated in dark for 24 hrs followed by compound removal and measured after 5 mins under 20 mW/cm2H2 white light irradiation by H2-DCFDA staining based fluorescence assay; type: functional, cell-based; conditions: dose 5-60 nM
[18] = Potency index, ratio of IC50 for Chlorin e6 to IC50 for test compound for phototoxicity in human MDA-MB-231 cells assessed as cell viability preincubated for 24 hrs followed by white light irradiation at 20 mW/cm2 for 10 mins and measured after 24 hrs by MTT assay; type: functional; conditions: time 48 hrs
[19] = Photosensitizing ability of the compound in NaOH assessed as fluorescence quantum yield; type: functional
[20] = test system: MDA-MB-231; assay: Upregulation of Chac1 mRNA expression in human MDA-MB-231 cells at 10 nM preincubated for 24 hrs followed by […] white light irradiation for 10 mins and measured after 12 hrs by qRT-PCR analysis; type: functional, cell-based; conditions: time 2170.0 min
[21] = Drug localization in Lipid droplet of mouse 4T1 cells assessed as increase in green fluorescence by measuring pearson correlation coefficient at 2 uM incubated for 12 hrs by confocal scanning microscopy analysis; type: ADME, subcellular; conditions: 4t1, 12 h
[22] = test system: 4T1; assay: as §2, with “irradiation in presence of NaN3” for “irradiation”; type: functional, cell-based; conditions: dose 5-60 nM
[23] = test system: 4T1; assay: Induction of ferroptosis in mouse 4T1 cells assessed as cell viability at 30 nM preincubated for 24 hrs followed by white light irradiation at 20 mW/cm2 and measured after 24 hrs in presence of Z-VAD-FMK by MTT assay; type: functional, cell-based; conditions: time 48.0 hrs
[24] = test system: 4T1; assay: Upregulation of Chac1 mRNA expression in mouse 4T1 cells at 10 nM under light irradiation by KEGG analysis; type: functional, cell-based
[25] = Phototoxicity in human MDA-MB-231 cells assessed as cell viability preincubated for 24 hrs followed by white light irradiation at 20 mW/cm2 for 10 mins and measured after 24 hrs by MTT assay; type: functional, cell-based; conditions: MDA-MB-231, light or radiation study
[26] = test system: 4T1; assay: Upregulation of […] mRNA expression in mouse 4T1 cells at 10 nM preincubated for 24 hrs followed by […] white light irradiation for 10 mins and measured after 12 hrs by qRT-PCR analysis; type: functional, cell-based; conditions: time 2170.0 min
[27] = as §1, with “mouse 4T1” for “human Bcap37”; type: toxicity, cell-based; conditions: read-out: Ratio CC50/IC50
[28] = test system: 4T1; assay: Induction of ferroptosis in mouse 4T1 cells assessed as cell viability at 30 nM preincubated for 24 hrs followed by white light irradiation at 20 mW/cm2 and measured after 24 hrs in presence of 3-MA by MTT assay; type: functional, cell-based; conditions: time 48.0 hrs
[29] = Drug localization in endoplasmic reticulum of mouse 4T1 cells assessed as increase in green fluorescence at 2 uM incubated for 12 hrs by confocal scanning microscopy analysis; type: ADME, subcellular; conditions: 4t1, 12 h
[30] = Drug localization in Lipid droplet of mouse 4T1 cells assessed as increase in green fluorescence at 2 uM incubated for 12 hrs by confocal scanning microscopy analysis; type: ADME, subcellular; conditions: 4t1, 12 h
[31] = Photosensitizing ability of the compound in EtOH assessed as singlet oxygen quantum yield at 100 nM under 520nm 30 mW/cm2 light irradiation by DPBF reagent based analysis; type: functional
[32] = Phototoxicity in human MCF7 cells assessed as cell viability preincubated for 24 hrs followed by white light irradiation at 20 mW/cm2 for 10 mins and measured after 24 hrs by MTT assay; type: functional, cell-based; conditions: MCF7, light or radiation study
[33] = test system: 4T1; assay: Upregulation of Hmox1 mRNA expression in mouse 4T1 cells at 10 nM preincubated for 24 hrs followed by […] white light irradiation for 10 mins and measured after 12 hrs by qRT-PCR analysis; type: functional, cell-based; conditions: time 2170.0 min
[34] = test system: MDA-MB-231; assay: Upregulation of Acsl4 mRNA expression in human MDA-MB-231 cells at 10 nM preincubated for 24 hrs followed by […] white light irradiation for 10 mins and measured after 12 hrs by qRT-PCR analysis; type: functional, cell-based; conditions: time 2170.0 min
[35] = test system: 4T1; assay: Induction of ferroptosis in mouse 4T1 cells assessed as decrease in intracellular GSH level at 15 nM preincubated in dark condition for 24 hrs followed by 20mW/cm2 white light irradiation for 10 mins and measured after 12 hrs by colorimetric assay; type: functional, cell-based; conditions: time 2170.0 min
[36] = test system: 4T1; assay: Induction of ferroptosis in mouse 4T1 cells assessed as increase in intracellular lipid peroxidation accumulation by measuring increase in green fluorescence at 30 nM preincubated for 24 hrs followed by 30 mW/cm2 green light irradiation for 4 mins by C11 BODIPY 581/591 staining based analysis; type: functional, cell-based; conditions: time 1444.0 min

With `CC1=C(I)C(C)=[N+]2C1=C(c1nccc3c1[nH]c1ccccc13)c1c(C)c(I)c(C)n1[B-]2(F)F` the Activity [1] was “Active”, the selectivity ratio [2] was greater than 3880 and the IC50 [3] was 23 nM. It also gave a CC50 at 24 h [4] greater than 100000 nM, a selectivity ratio [5] of 835 and a selectivity ratio [6] greater than 2430. The CC50 at 24 h [7] was greater than 100000 nM, the IC50 [8] was 26 nM and the Activity [9] was “Active”. The Activity [10] was “Active”, the Activity [11] was “Active” and the Activity [12] was “inactive”. The Activity [13] was “Active”, the Activity [14] was “Active” and the CC50 at 24 h [15] was 27600 nM. The Activity [16] was “inactive”, the Activity [17] was “Active” and the “Ratio IC50” value [18] was 38. For the same compound, the Activity [19] was 0.19, the Activity [20] was “Active” and the Activity [21] was 0.84. The Activity [22] was “inactive”, the Activity [23] was “inactive” and the Activity [24] was “Active”. The IC50 [25] was 33 nM, the Activity [26] was “Active” and the selectivity ratio [27] was 18. The Activity [28] was “inactive”, the Drug uptake [29] was “Active” and the Drug uptake [30] was “Active”. The Activity [31] was 0.73, the IC50 [32] was 41 nM and the Activity [33] was “Active”. For the same compound, the Activity [34] was “Active”, the Activity [35] was “Active” and the Activity [36] was “Active”.
